This is an account of results in PMC10746708, “A small molecule iCDM-34 identified by in silico screening suppresses HBV DNA through activation of aryl hydrocarbon receptor” (Cell Death Discovery, 2023).

This experiment relates to HBV-infected PXB cells. The experiment can be described thus: pgRNA and OAS1 mRNA by qPCR in HBV-infected PXB cells. Type of experiment: cell-based, human. To be noted: 7 days. The protocol:
mRNA expression levels were measured by qPCR using specific primers or sets of specific primers and probe. RNA was reverse transcribed using PrimeScript RT Master Mix (Takara Bio, Shiga, Japan) to synthesize complementary DNA (cDNA). OAS1,glyceraldehyde 3-phosphate dehydrogenase (GAPDH), β-actin mRNA expression levels were measured using specific primers and TB Green Premix Ex Taq II (Takara Bio). AhR (Hs00169233_m), CDK1 (Hs00938777_m), CDK2 (Hs01548894_m) mRNA expression levels were measured using specific probe and primer sets (Thermo Fisher Scientific, Waltham, MA, USA) and Probe qPCR mix (Takara Bio) in a CFX96 Touch Real-Time PCR Detection System (Bio-Rad Laboratories, Hercules, CA, USA). The specific primers used in this study were OAS1 (forward primer: 5′-[…]-3′, reverse primer: 5′-[…]-3′), reverse primer: 5′-[…]-3′, and GAPDH (forward primer: 5′-[…]-3′, reverse primer: 5′-[…]-3′). β-actin (forward primer: forward primer: 5′-[…]-3′ and reverse primer: 5′-[…]-3′). Expression levels were determined using the 2^–ΔΔCt method and were normalized to endogenous β-actin mRNA expression levels.
PXB cells were plated on 96-well plate and infected with three genome equivalents per cell of HBV C_AT [33], and the medium was changed every 3 or 4 days. […]
For orientation: Real-time PCR tracks product formation cycle by cycle.

On to `O=C(Nc1ccc(Br)cc1)c1ccn(Cn2cc([N+](=O)[O-])cn2)n1` [iCDM-34], for which the pgRNA expression level result (30 µM) is “significantly decreased”. For the same molecule, the “expression of OAS1 (ISG)” value (0.0003–30 μM) is “no increase”.
